pIC50: −log10 of the molar value. Read-outs that look alike come from different tables or passages of the source.
Tests used:
[1] = test system: human multiple myeloma cell line, OPM-2; test: Cell viability assay (OPM-2 10 FBS), CellTiter-Glo; format: cell-based
Procedure, shortened: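 3000 cells/well, RPMI 1640 + 10% FBS; serial compound dilutions, 16 h, 37 °C/5% CO2.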

[2] = target: recombinant human Mcl-1 (residues 171-327) / Bim interaction (Homo sapiens (Human), UniProt Q07820); test: biochemical; format: binding; conditions: read-out: Mcl-1 HTRF IC50
Chain of recombinant human Mcl-1 (residues 171-327) / Bim interaction (Q07820 171-327): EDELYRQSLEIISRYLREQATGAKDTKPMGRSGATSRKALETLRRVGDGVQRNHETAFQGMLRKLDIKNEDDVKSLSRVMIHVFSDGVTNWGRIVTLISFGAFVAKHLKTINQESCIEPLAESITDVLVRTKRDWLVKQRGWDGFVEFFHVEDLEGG

[3] = Homo sapiens, OPM-2, 16 h, read-out: OPM-2 10% FBS IC50 IP, OPM-2 cells, 10% FBS, 16 h incubation
[4] = 0.1 nM Mcl-1(171-327), 0.05 nM biotin-Bim (51-76)
[5] = Homo sapiens, OPM-2, 16 h, read-out: OPM-2 10% FBS IC50 IP, OPM-2 cells, 10% FBS, 16 h, CellTiter-Glo
[6] = TR-FRET, Mcl-1(171-327) / biotin-Bim (51-76)
[7] = read-out: OPM-2 10% FBS IC50 IP, OPM-2 cells, 10% FBS, 16 h, CellTiter-Glo

| SMILES | pIC50 [1, 3] | pIC50 [2, 4] | pIC50 [1, 5] | pIC50 [2, 6] | further results |
| --- | --- | --- | --- | --- | --- |
| CO[C@@]1(CN2CCN(c3ncccn3)CC2)/C=C/C[C@H](C)[C@@H](C)S(=O)(=O)NC(=O)c2ccc3c(c2)N(C[C@@H]2CC[C@H]21)C[C@@]1(CCCc2cc(Cl)ccc21)CO3 [Example 256, (1S,3′R,6′R,7′S,8′E,11′S,12′R)-6-chloro-7′-methoxy-11′,12′-dimethyl-7′-((4-(2-pyrimidinyl)-1-piperazinyl)methyl)-3,4-dihydro-2H,15′H-spiro[naphthalene-1,22′-[20]oxa[13]thia[1,14]diazatetracyclo [14.7.2.0~3,6~.0~19,24~]pentacosa[8,16,18,24]tetraen]-15′-one 13′,13′-dioxide] | 5.79 | 9.36 |  |  |  |
| CO[C@@]1(c2cncnc2)/C=C/C[C@H](C)[C@@H](C)S(=O)(=O)NC(=O)c2ccc3c(c2)N(C[C@@H]2CC[C@H]21)C[C@@]1(CCCc2cc(Cl)ccc21)CO3 [Example 100468, (1S,3′R,6′R,7′S,8′E,11′S,12′R)-6-chloro-7′-methoxy-11′,12′-dimethyl-7′-(5-pyrimidinyl)-3,4-dihydro-2H,15′H-spiro[naphthalene-1,22′-[20]oxa[13]thia[1,14]diazatetracyclo [14.7.2.0~3,6~.0~19,24~]pentacosa[8,16,18,24]tetraen]-15′-one 13′,13′-dioxide] |  |  | 6.03 | 9.41 |  |
| CO[C@]1(CN2C[C@@H](C)N(C(C)C)[C@H](C)C2)/C=C/C[C@H](C)[C@@H](C)S(=O)(=O)NC(=O)c2ccc3c(c2)N(C[C@@H]2CC[C@H]21)C[C@@]1(CCCc2cc(Cl)ccc21)CO3 [Example 343, (1S,3′R,6′R,7′R,8′E,11′S,12′R)-6-chloro-7′-(((3R,5R)-3,5-dimethyl-4-(1-methylethyl)-1-piperazinyl)methyl)-7′-methoxy-11′,12′-dimethyl-3,4-dihydro-2H,15′H-spiro[naphthalene-1,22′-[20]oxa[13]thia[1,14]diazatetracyclo [14.7.2.0~3,6~.0~19,24~]pentacosa[8,16,18,24]tetraen]-15′-one 13′,13′-dioxide] | 7.03 | 10.03 |  |  |  |
| COCC(=O)N1CCN(C[C@]2(OC)/C=C/C[C@H](C)[C@@H](C)S(=O)(=O)NC(=O)c3ccc4c(c3)N(C[C@@H]3CC[C@H]32)C[C@@]2(CCCc3cc(Cl)ccc32)CO4)CC1 [Example 246, (1S,3′R,6′R,7′S,8′E,11′S,12′R)-6-chloro-7′-methoxy-7′-((4-(methoxyacetyl)-1-piperazinyl)methyl)-11′,12′-dimethyl-3,4-dihydro-2H,15′H-spiro[naphthalene-1,22′-[20]oxa[13]thia[1,14]diazatetracyclo [14.7.2.0~3,6~.0~19,24~]pentacosa[8,16,18,24]tetraen]-15′-one 13′,13′-dioxide] | 6.86 | 10.00 |  |  |  |
| Cc1ncc([C@]2(O)/C=C/C[C@H](C)[C@@H](C)S(=O)(=O)NC(=O)c3ccc4c(c3)N(C[C@@H]3CC[C@H]32)C[C@@]2(CCCc3cc(Cl)ccc32)CO4)n1C (single isomer, unassigned) [Example 100559] |  |  | 5.99 | 9.95 |  |
| CO[C@@]1(CN2CC(C)(N(C)C)C2)/C=C/C[C@H](C)[C@@H](C)S(=O)(=O)NC(=O)c2ccc3c(c2)N(C[C@@H]2CC[C@H]21)C[C@@]1(CCCc2cc(Cl)ccc21)CO3 [Example 59, (1S,3′R,6′R,7′S,8′E,11′S,12′R)-6-chloro-7′-((3-(dimethylamino)-3-methyl-1-azetidinyl)methyl)-7′-methoxy-11′,12′-dimethyl-3,4-dihydro-2H,15′H-spiro[naphthalene-1,22′-[20]oxa[13]thia[1,14]diazatetracyclo [14.7.2.0~3,6~.0~19,24~]pentacosa[8,16,18,24]tetraen]-15′-one 13′,13′-dioxide] | 7.32 | 9.94 |  |  |  |
| CO[C@@]1(CN2CCN([C@H]3CCOC3)CC2)/C=C/C[C@H](C)[C@@H](C)S(=O)(=O)NC(=O)c2ccc3c(c2)N(C[C@@H]2CC[C@H]21)C[C@@]1(CCCc2cc(Cl)ccc21)CO3 (single isomer, unassigned) [Example 285] |  | 9.97 |  |  | pIC50 ([1]; read-out: OPM-2 10% FBS IC50 IP, OPM-2 cells, 10% FBS, 16 h incubation): 7.21 |
| COC[C@]1(OC)/C=C/C[C@H](C)[C@@H](C)S(=O)(=O)NC(=O)c2ccc3c(c2)N(C[C@@H]2CC[C@H]21)C[C@@]1(CCCc2cc(Cl)ccc21)CO3 [Example 100401, (1S,3′R,6′R,7′S,8′E,11′S,12′R)-6-chloro-7′-methoxy-7′-(methoxymethyl)-11′,12′-dimethyl-3,4-dihydro-2H,15′H-spiro[naphthalene-1,22′-[20]oxa[13]thia[1,14]diazatetracyclo [14.7.2.0~3,6~.0~19,24~]pentacosa[8,16,18,24]tetraen]-15′-one 13′,13′-dioxide] |  |  | 5.08 | 8.75 |  |
| C[C@@H]1[C@@H](C)C/C=C/[C@@](O)(CC#N)[C@@H]2CC[C@H]2CN2C[C@@]3(CCCc4cc(Cl)ccc43)COc3ccc(cc32)C(=O)NS1(=O)=O [Example 100050, ((1S,3′R,6′R,7′S,8′E,11′S,12′R)-6-chloro-7′-hydroxy-11′,12′-dimethyl-13′,13′-dioxido-15′-oxo-3,4-dihydro-2H-spiro[naphthalene-1,22′-[20]oxa[13]thia[1,14]diazatetracyclo [14.7.2.0~3,6~.0~19,24~]pentacosa[8,16,18,24]tetraen]-7′-yl)acetonitrile] |  |  |  |  | pIC50 [1, 7]: 5.42; pIC50 [2]: 8.89 |
| C[C@@H]1[C@@H](C)C/C=C/[C@](O)(Cc2ccnc(C#N)c2)[C@@H]2CC[C@H]2CN2C[C@@]3(CCCc4cc(Cl)ccc43)COc3ccc(cc32)C(=O)NS1(=O)=O [Example 100187, 4-(((1S,3′R,6′R,7′R,8′E,11′S,12′R)-6-chloro-7′-hydroxy-11′,12′-dimethyl-13′,13′-dioxido-15′-oxo-3,4-dihydro-2H-spiro[naphthalene-1,22′-[20]oxa[13]thia[1,14]diazatetracyclo [14.7.2.0~3,6~.0~19,24~]pentacosa[8,16,18,24]tetraen]-7′-yl)methyl)-2-pyridinecarbonitrile] |  |  |  | 8.56 | pIC50 [1, 7]: 5.51 |
| C[C@@H]1[C@@H](C)CCC[C@](O)(c2nccn2C)[C@@H]2CC[C@H]2CN2C[C@@]3(CCCc4cc(Cl)ccc43)COc3ccc(cc32)C(=O)NS1(=O)=O [Example 100223, (1S,3′R,6′R,7′R,11′S,12′R)-6-chloro-7′-hydroxy-11′,12′-dimethyl-7′-(1-methyl-1H-imidazol-2-yl)-3,4-dihydro-2H,15′H-spiro[naphthalene-1,22′-[20]oxa[13]thia[1,14]diazatetracyclo [14.7.2.0~3,6~.0~19,24~]pentacosa[16,18,24]trien]-15′-one 13′,13′-dioxide] |  |  | 5.67 | 8.85 |  |
| C[C@@H]1[C@@H](C)CCC[C@@](O)([C@@H]2CCN(C)C2=O)[C@@H]2CC[C@H]2CN2C[C@@]3(CCCc4cc(Cl)ccc43)COc3ccc(cc32)C(=O)NS1(=O)=O [Example 100203, (1S,3′R,6′R,7′S,11′S,12′R)-6-chloro-7′-hydroxy-11′,12′-dimethyl-7′-((3S)-1-methyl-2-oxo-3-pyrrolidinyl)-3,4-dihydro-2H,15′H-spiro[naphthalene-1,22′-[20]oxa[13]thia[1,14]diazatetracyclo [14.7.2.0~3,6~.0~19,24~]pentacosa[16,18,24]trien]-15′-one 13′,13′-dioxide] |  |  |  | 9.55 | pIC50 [1, 7]: 6.31 |
| C[C@@H]1[C@@H](C)C/C=C/[C@]2(CNCCO2)[C@@H]2CC[C@H]2CN2C[C@@]3(CCCc4cc(Cl)ccc43)COc3ccc(cc32)C(=O)NS1(=O)=O [Example 134, (1S,3′R,6′R,7′R,8′E,11′S,12′R)-6-chloro-11′,12′-dimethyl-3,4-dihydro-2H,15′H-dispiro[naphthalene-1,22′-[20]oxa[13]thia[1,14]diazatetracyclo [14.7.2.0~3,6~.0~19,24~]pentacosa[8,16,18,24]tetraene-7′,2″-[1,4]oxazinan]-15′-one 13′,13′-dioxide] | 5.52 | 8.33 |  |  |  |
| CCC[C@@]1(O)/C=C/C[C@H](C)[C@@H](C)S(=O)(=O)NC(=O)c2ccc3c(c2)N(C[C@@H]2CC[C@H]21)C[C@@]1(CCCc2cc(Cl)ccc21)CO3 [Example 100209, (1S,3′R,6′R,7′R,8′E,11′S,12′R)-6-chloro-7′-hydroxy-11′,12′-dimethyl-7′-propyl-3,4-dihydro-2H,15′H-spiro[naphthalene-1,22′-[20]oxa[13]thia[1,14]diazatetracyclo [14.7.2.0~3,6~.0~19,24~]pentacosa[8,16,18,24]tetraen]-15′-one 13′,13′-dioxide] |  |  | 5.47 |  | pIC50 [2]: 8.57 |
| C[C@@H]1[C@@H](C)C/C=C/[C@@](CO)(OCC(F)(F)F)[C@@H]2CC[C@H]2CN2C[C@@]3(CCCc4cc(Cl)ccc43)COc3ccc(cc32)C(=O)NS1(=O)=O (single isomer, unassigned) [Example 100604] |  |  | 5.39 | 9.14 |  |
| CO[C@@]1(CS(=O)(=O)C(C)C)/C=C/C[C@H](C)[C@@H](C)S(=O)(=O)NC(=O)c2ccc3c(c2)N(C[C@@H]2CC[C@H]21)C[C@@]1(CCCc2cc(Cl)ccc21)CO3 [Example 100316, (1S,3′R,6′R,7′S,8′E,11′S,12′R)-6-chloro-7′-methoxy-11′,12′-dimethyl-7′-((2-propanylsulfonyl)methyl)-3,4-dihydro-2H,15′H-spiro[naphthalene-1,22′-[20]oxa[13]thia[1,14]diazatetracyclo [14.7.2.0~3,6~.0~19,24~]pentacosa[8,16,18,24]tetraen]-15′-one 13′,13′-dioxide] |  |  |  | 9.56 | pIC50 [1, 7]: 6.43 |

Source: patent publication US10821115B2, “Compounds that inhibit Mcl-1 protein” (priority 2017, dated 2020)
